Experimental data as given in US20250049831A1, “ANTIVIRAL USE OF BISE[…], AND BISEPOXYLIGNAN COMPOSITION AND PREPARATION OF BISE[…]” (priority 2021, published 2025).

Experiments:
TNF-α = experiment: Serum TNF-α in mice infected with influenza virus; type: in vivo, ICR mice; details: Day 5 after influenza virus infection, gavage once a day, x ± s
Description: (§1) On the Day 5 after influenza virus infection, that is, Day 6 after administration, after the mice were fasted with solids for 8 h and weighed, venous blood was collected from the plexus ophthalmicus, and blood from mice in each group was preserved, subjected to serum separation, and stored in a refrigerator for later use. According to the instructions of a test kit, various detection and analysis were carried out, and IL-2 and TNF-α concentrations were calculated based on the standard detection and standard curve plotting.

influenza virus FM1 = experiment: Action links (Groups I-IV: prevention, treatment, direct inactivation), protection of cells against influenza virus; type: cell-based
parainfluenza virus [1] = experiment: Action links (Groups I-IV: prevention, treatment, direct inactivation), protection of cells against parainfluenza virus; type: cell-based
COVID-19 Delta virus [2] = experiment: Prophylactic administration, death protection of mice infected with COVID-19 Delta virus; details: prophylactic administration, within 5 days of Delta infection, n = 8; for Mean survival: x ± s
Description: hACE2 transgenic C57BL/6 mice were divided (8 mice in each group) into a normal group (NC), a virus infection group (Virus), and drug groups (a COVID-19 Delta virus low-dose (40 mg/kg) group, high-dose (80 mg/kg) group; and a positive control group (Remdesivir 50 mg/kg). Before nasal dripping infection, the drug was administered by gavage 5 days in advance, once a day. After 5 days of continuous gavage, nasal dripping infection was performed, and mice in each COVID-19 virus infection group were infected with COVID-19 Delta virus with 10′ PFU by nasal dripping, except for the normal group who were given PBS by nasal dripping.
After infection, the body weight change was recorded every day, the death of animals within 5 days of infection was recorded, and the mean survival days and mortality rate of 5 days were calculated.

MCP-1 = experiment: RT-qPCR of MCP-1 in lung homogenate of mice infected with COVID-19 Delta virus; details: mRNA RT-qPCR, NC = 1.00
influenza virus [3] = type: in vivo, Kunming mice; details: 13.0 mg/kg
IL-1β = experiment: RT-qPCR of IL-1β in lung homogenate of mice infected with COVID-19 Delta virus; details: mRNA RT-qPCR, NC = 1.00
parainfluenza virus [4] = type: in vivo, Kunming mice; details: 13.0 mg/kg
COVID-19 Delta virus [5] = experiment: Prophylactic administration, virus titer in lung tissues of mice infected with COVID-19 Delta virus; details: prophylactic gavage 5 days before infection, Day 5 after infection, TCID50 on VERO E6 cells
IL-2 = experiment: Serum IL-2 in mice infected with influenza virus; type: in vivo, ICR mice; details: Day 5 after influenza virus infection, gavage once a day, x ± s
Description: as §1

influenza virus [6] = experiment: Effect of drug on virus-induced CPE (MTT, antiviral effective rate), influenza virus in Vero cells; type: cell-based
parainfluenza virus [7] = experiment: Effect of drug on virus-induced CPE (MTT, antiviral effective rate), parainfluenza virus in Vero cells; type: cell-based
Vero cells = experiment: Drug cytotoxicity assay (MTT) on Vero cells; type: cell-based, African green monkey; details: 72 h, Probit regression
From the text: Vero cells were subcultured for 1-2 d to make them into flakes, and trypsinized in the presence of clear boundaries, strong three-dimensional sense and strong refractive power, until needle-like holes appeared on the cell surfaces; after the trypsinization solution was absorbed completely, a few milliliters of culture medium were taken to blow away the cells; the cells were counted, diluted to about 5×10^7/L with a culture medium (DMEM containing 10% fetal bovine serum), and then inoculated in a 96-well culture plate; and the cells grew into a monolayer.
Cytotoxicity test: the drugs were diluted at the concentrations shown in Table 3-1 for cytotoxicity assay.

COVID-19 virus = experiment: In-vitro antiviral CPE test in Vero E6 cells, COVID-19 virus; type: cell-based; details: Vero E6 cells, 100 TCID50, CPE after 3-4 days; unit not given (drug concentrations 250-15.62 μg/mL); in µg/mL
[8] = drug and virus mixed and adsorbed for 2 h, then added with cells (direct inactivation)
[9] = drug solution and virus solution added at the same time (direct inactivation)
[10] = virus added first, drug added 1 h after adsorption (treatment)
[11] = virus solution added after 24 h of drug administration (prevention)
[12] = high-dose group 80 mg/kg gavage 5 days
[13] = low-dose group 40 mg/kg gavage 5 days

In the case of `COc1cc([C@H]2OC[C@H]3[C@@H]2CO[C@H]3c2ccc(OC)c(OC)c2)ccc1O` [Serial No. 3, phillygenin], the TNF-a expression level (TNF-α; High-dose group (26.0 mg/kg)) is reported as 648.40 ± 27.19, the TNF-a expression level (TNF-α; Low-dose group (13.0 mg/kg)) is reported as 713.48 ± 39.74 and the “Protection rate (ER %), Group IV” value (influenza virus FM1; [8]) is reported as 100.38%. For the same compound, the “Protection rate (ER %), Group III” value (influenza virus FM1; [9]) was 100.86%, the “Protection rate (ER %), Group II” value (influenza virus FM1; [10]) was 75.51% and the “Protection rate (ER %), Group I” value (influenza virus FM1; [11]) was 75.46%. The “Protection rate (ER %), Group IV” value (parainfluenza virus [1]; [8]) was 100.18%, the “Protection rate (ER %), Group III” value (parainfluenza virus [1]; [9]) was 100.46% and the “Protection rate (ER %), Group II” value (parainfluenza virus [1]; [10]) was 85.11%. The “Protection rate (ER %), Group I” value (parainfluenza virus [1]; [11]) was 84.15%, the Death rate (COVID-19 Delta virus [2]; High dose) was 12.50% and the Survival rate (COVID-19 Delta virus [2]; High dose) was 87.50%. For the same compound, the Mean survival (COVID-19 Delta virus [2]; High dose) was 4.88 ± 0.35 days, the Death rate (COVID-19 Delta virus [2]; Low dose) was 75.00% and the Survival rate (COVID-19 Delta virus [2]; Low dose) was 25.00%. For the same compound, the Mean survival (COVID-19 Delta virus [2]; Low dose) was 4.13 ± 0.64 days, the “Expression level of MCP-1 in lung homogenate (x ± s)” value (MCP-1; [12]) was 3.67 ± 10.22 and the “Expression level of MCP-1 in lung homogenate (x ± s)” value (MCP-1; [13]) was 6.71 ± 4.38. The “Hemagglutination titer inhibition rate (%)” value (influenza virus [3]; Day 5) was 42.20%, the Hemagglutination titer (influenza virus [3]; lung suspension, Day 5, […]) was 20.50 ± 0.489 and the “Expression level of IL-1β in lung homogenate (x ± s)” value (IL-1β; [12]) was 4.93 ± 16.18. The “Expression level of IL-1β in lung homogenate (x ± s)” value (IL-1β; [13]) was 9.98 ± 11.16, the “Hemagglutination titer inhibition rate (%)” value (parainfluenza virus [4]; Day 5) was 36.28% and the Hemagglutination titer (parainfluenza virus [4]; lung suspension, Day 5, […]) was 22.06 ± 0.310. For the same compound, the “Lung virus titer (x ± s, n = 8)” value (COVID-19 Delta virus [5]; high dose 80 mg/kg) was 2.98 ± 0.73, the “Lung virus titer (x ± s, n = 8)” value (COVID-19 Delta virus [5]; low dose 40 mg/kg) was 3.47 ± 0.98 and the IL-2 expression level (IL-2; High-dose group (26.0 mg/kg)) was 275.59 ± 31.88. For the same compound, the IL-2 expression level (IL-2; Low-dose group (13.0 mg/kg)) was 306.70 ± 34.88.
For `COc1cc(O)cc(C2OCC3C(c4ccc(OC5OC(CO)C(O)C(O)C5O)c(OC)c4)OCC23)c1` (stereo not drawn) [compound 1], the “Effective rate, ER %, Influenza Virus” value (influenza virus [6]) was 89.02%, the “Effective rate, ER %, Parainfluenza Virus” value (parainfluenza virus [7]) was 99.92% and the “Maximum non-toxic concentration (TC0)” value (Vero cells) was 0.0067 g/L. For the same compound, the “Median toxic concentration (TC50)” value (Vero cells) was 560 mg/L and the “COVID-19 virus IC50” value (COVID-19 virus) was 62.1.
With `COc1ccc([C@H]2OC[C@H]3[C@@H]2CO[C@H]3c2ccc(O[C@@H]3O[C@H](CO)[C@@H](O)[C@H](O)[C@H]3O)c(OC)c2)cc1OC` [compound 2] the “Effective rate, ER %, Influenza Virus” value (influenza virus [6]) was 85.94%, the “Effective rate, ER %, Parainfluenza Virus” value (parainfluenza virus [7]) was 94.43% and the “Maximum non-toxic concentration (TC0)” value (Vero cells) was 0.0067 g/L. The “Median toxic concentration (TC50)” value (Vero cells) was 560 mg/L and the “COVID-19 virus IC50” value (COVID-19 virus) was 63.3.
`COc1ccc(C2OCC3C(c4ccc(OC)c(OC)c4)OCC23)cc1O` (stereo not drawn) [compound 3] was tested, and the “Effective rate, ER %, Influenza Virus” value (influenza virus [6]) was 83.10%, the “Effective rate, ER %, Parainfluenza Virus” value (parainfluenza virus [7]) was 91.41% and the “Maximum non-toxic concentration (TC0)” value (Vero cells) was 0.012 g/L. For the same compound, the “Median toxic concentration (TC50)” value (Vero cells) was 310 mg/L and the “COVID-19 virus IC50” value (COVID-19 virus) was 166.5.
`COc1ccc(C2OCC3C(c4ccc(OC(=O)C(C)c5ccc(CC(C)C)cc5)c(OC)c4)OCC23)cc1OC` (stereo not drawn) [compound 6] was tested, and the “Effective rate, ER %, Influenza Virus” value (influenza virus [6]) was 84.51%, the “Effective rate, ER %, Parainfluenza Virus” value (parainfluenza virus [7]) was 93.96% and the “Maximum non-toxic concentration (TC0)” value (Vero cells) was 0.012 g/L. For the same compound, the “Median toxic concentration (TC50)” value (Vero cells) was 310 mg/L and the “COVID-19 virus IC50” value (COVID-19 virus) was 161.8.
